Results: patent US20070117743A1, “New antitumoral compounds” (priority 2003, published 2007)
Where a SMILES comes first, the peptide text is derived from it. Bridges are numbered along the chain shown (N, C = ends). [ ]: non-standard residue; d: D form. The star is where a group is joined. d(aIle) = CC[C@H](C)[C@@H](N)C(=O)O; d(aThr) = C[C@@H](O)[C@@H](N)C(=O)O; hCha = N[C@@H](CCC1CCCCC1)C(=O)O; Hexanoyl(5-Me) = CC(C)CCCC(=O)*; Orn = NCCC[C@H](N)C(=O)O; Dhb = C/C=C(\N)C(=O)O

Columns and labels:
Format in all cases: cell-based, human
IGROV-ET = assay: SRB colorimetric assay of cell growth and viability, IGROV-ET; settings: 48 hours exposure; for CC50: read-out: LC50 IGROV-ET
LNCaP = assay: SRB colorimetric assay of cell growth and viability, LNCaP; settings: 48 hours exposure; for GI50: read-out: GI50 LN-caP; for CC50: read-out: LC50 LN-caP
K-562 = assay: SRB colorimetric assay of cell growth and viability, K-562; settings: 48 hours exposure; for CC50: read-out: LC50 K-562
HeLa = assay: SRB colorimetric assay of cell growth and viability, HeLa; settings: 48 hours exposure; for CC50: read-out: LC50 HELA
DU-145 = assay: SRB colorimetric assay of cell growth and viability, DU-145; settings: 48 hours exposure
LoVo = assay: SRB colorimetric assay of cell growth and viability, LoVo; settings: 48 hours exposure; for CC50: read-out: LC50 LOVO
A-549 = assay: SRB colorimetric assay of cell growth and viability, A-549; settings: 48 hours exposure; for GI50: read-out: GI50 A-549; for CC50: read-out: LC50 A-549
PANC-1 = assay: SRB colorimetric assay of cell growth and viability, PANC-1; settings: 48 hours exposure; for CC50: read-out: LC50 PANC-1
LoVo-Dox = assay: SRB colorimetric assay of cell growth and viability, LoVo-Dox; settings: 48 hours exposure; for CC50: read-out: LC50 LOVO-DOX
How it was run: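 First, 5×10^3 cells per well attach for 18 hours in RPMI 1640 with 10% FBS at 37° C and 5% CO2. Next, samples spanning 10 to 10^−8 μg/mL are added for 48 hours. Finally, cells are fixed with TCA, stained with SRB for 10 minutes and read at 490 nm.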

HT-29 = assay: SRB colorimetric assay of cell growth and viability, HT-29; settings: 48 hours exposure; for GI50: read-out: GI50 HT-29; for CC50: read-out: LC50 HT-29
SK-MEL-28 = assay: SRB colorimetric assay of cell growth and viability, SK-MEL-28; settings: 48 hours exposure; for CC50: read-out: LC50 MEL-28
IGROV-1 = assay: SRB colorimetric assay of cell growth and viability, IGROV-1; settings: 48 hours exposure
SK-BR-3 = assay: SRB colorimetric assay of cell growth and viability, SK-BR-3; settings: 48 hours exposure
HeLa-APL = assay: SRB colorimetric assay of cell growth and viability, HeLa-APL; settings: 48 hours exposure; for CC50: read-out: LC50 HELA-APL

**Q.** Which GI50 (IGROV-ET) does the source give for `C/C=C1\NC(=O)[C@H](Cc2ccccc2)NC(=O)[C@@H](C(C)C)NC(=O)[C@@H]([C@@H](C)CC)NC(=O)[C@H](NC(=O)[C@H](NC(=O)[C@H](CCCN)NC(=O)[C@H]2CCCN2C(=O)[C@H](NC(=O)[C@@H](NC(=O)[C@@H](NC(=O)[C@@H](CC2CCCCC2)NC(=O)CCCC(C)C)[C@@H](C)O)C(C)C)C(C)C)[C@@H](C)CC)[C@@H](C)OC(=O)[C@H](C(C)C)NC1=O` [Compound 8, [D-Cha^13]-KF] here?
**A.** 652 nM

**Q.** What about the “TGI IGROV-ET” value (IGROV-ET) of the same compound?
**A.** 1.44E−06 Molar

**Q.** What about the CC50 (IGROV-ET) of the same compound?
**A.** 3.16 µM

**Q.** What about the “TGI LN-caP” value (LNCaP) of the same compound?
**A.** 6.53E−06 Molar

**Q.** And the GI50 (LNCaP)?
**A.** 2790 nM

**Q.** What about the CC50 (LNCaP) of the same compound?
**A.** 6.53 µM

**Q.** And the GI50 (K-562)?
**A.** 1930 nM

**Q.** And the “TGI K-562” value (K-562)?
**A.** 4.92E−06 Molar

**Q.** And the CC50 (K-562)?
**A.** 6.53 µM

**Q.** And the GI50 (HeLa)?
**A.** 1400 nM

**Q.** And the “TGI HELA” value (HeLa)?
**A.** 2.30E−06 Molar

**Q.** What about the CC50 (HeLa) of the same compound?
**A.** 3.8 µM

**Q.** And the GI50 (DU-145)?
**A.** 1330 nM

**Q.** What about the LC50 (concentration causing 50% net cell kill) (DU-145) of the same compound?
**A.** 4.26 µM

**Q.** What about the “TGI DU-145” value (DU-145) of the same compound?
**A.** 2.38E−06 Molar

**Q.** What about the GI50 (LoVo) of the same compound?
**A.** 1010 nM

**Q.** And the “TGI LOVO” value (LoVo)?
**A.** 1.96E−06 Molar

**Q.** What about the CC50 (LoVo) of the same compound?
**A.** 3820 nM

**Q.** And the “TGI A-549” value (A-549)?
**A.** 4.18E−06 Molar

**Q.** And the GI50 (A-549)?
**A.** 1970 nM

**Q.** What about the CC50 (A-549) of the same compound?
**A.** 6.53 µM

**Q.** What about the GI50 (PANC-1) of the same compound?
**A.** 6.53 µM

**Q.** And the “TGI PANC-1” value (PANC-1)?
**A.** 6.53E−06 Molar

**Q.** What about the CC50 (PANC-1) of the same compound?
**A.** 6.53 µM

**Q.** What about the GI50 (LoVo-Dox) of the same compound?
**A.** 986 nM

**Q.** And the “TGI LOVO-DOX” value (LoVo-Dox)?
**A.** 2.09E−06 Molar

**Q.** What about the CC50 (LoVo-Dox) of the same compound?
**A.** 4430 nM

**Q.** And the “TGI HT-29” value (HT-29)?
**A.** 1.99E−06 Molar

**Q.** And the GI50 (HT-29)?
**A.** 992 nM

**Q.** What about the CC50 (HT-29) of the same compound?
**A.** 3990 nM

**Q.** And the GI50 (SK-MEL-28)?
**A.** 1450 nM

**Q.** And the “TGI MEL-28” value (SK-MEL-28)?
**A.** 2.42E−06 Molar

**Q.** And the CC50 (SK-MEL-28)?
**A.** 4.02 µM

**Q.** What about the GI50 (IGROV-1) of the same compound?
**A.** 1040 nM

**Q.** What about the LC50 (concentration causing 50% net cell killing) (IGROV-1) of the same compound?
**A.** 4.29 µM

**Q.** What about the “TGI IGROV” value (IGROV-1) of the same compound?
**A.** 2.11E−06 Molar

**Q.** What about the GI50 (SK-BR-3) of the same compound?
**A.** 484 nM

**Q.** And the LC50 (SK-BR-3)?
**A.** 3170 nM

**Q.** And the “TGI SK-BR-3” value (SK-BR-3)?
**A.** 1.25E−06 Molar

**Q.** And the GI50 (HeLa-APL)?
**A.** 1700 nM

**Q.** What about the “TGI HELA-APL” value (HeLa-APL) of the same compound?
**A.** 2.87E−06 Molar

**Q.** What about the CC50 (HeLa-APL) of the same compound?
**A.** 4.86 µM

**Q.** How did the GI50 (IGROV-ET) turn out when `C/C=C1\NC(=O)[C@H](Cc2ccccc2)NC(=O)[C@@H](C(C)C)NC(=O)[C@@H]([C@@H](C)CC)NC(=O)[C@H](NC(=O)[C@H](NC(=O)[C@H](CCCN)NC(=O)[C@H]2CCCN2C(=O)[C@H](NC(=O)[C@H](CCC2CCCCC2)NC(=O)[C@@H](NC(=O)[C@H](NC(=O)CCCC(C)C)C(C)C)[C@@H](C)O)C(C)C)[C@@H](C)CC)[C@@H](C)OC(=O)[C@H](C(C)C)NC1=O` [Compound 9, [hCh^11]-KF] ({Hexanoyl(5-Me)}-[dV]T[hCha][dV][dP][Orn][d(aIle)][d(aThr)][d(aIle)][dV]F[Dhb]V; ester 8-C) was run?
**A.** 278 nM

**Q.** What about the “TGI IGROV-ET” value (IGROV-ET) of the same compound?
**A.** 8.09E−07 Molar

**Q.** And the CC50 (IGROV-ET)?
**A.** 2.94 µM

**Q.** What about the “TGI LN-caP” value (LNCaP) of the same compound?
**A.** 2.33E−06 Molar

**Q.** And the GI50 (LNCaP)?
**A.** 925 nM

**Q.** What about the CC50 (LNCaP) of the same compound?
**A.** 5.85 µM

**Q.** And the GI50 (K-562)?
**A.** 1720 nM

**Q.** And the “TGI K-562” value (K-562)?
**A.** 3.39E−06 Molar

**Q.** And the CC50 (K-562)?
**A.** 6.47 µM

**Q.** What about the GI50 (HeLa) of the same compound?
**A.** 356 nM

**Q.** What about the “TGI HELA” value (HeLa) of the same compound?
**A.** 1.12E−06 Molar

**Q.** What about the CC50 (HeLa) of the same compound?
**A.** 2.92 µM

**Q.** And the GI50 (DU-145)?
**A.** 455 nM

**Q.** And the LC50 (concentration causing 50% net cell kill) (DU-145)?
**A.** 3.28 µM

**Q.** What about the “TGI DU-145” value (DU-145) of the same compound?
**A.** 1.24E−06 Molar

**Q.** What about the GI50 (LoVo) of the same compound?
**A.** 95.7 nM

**Q.** What about the “TGI LOVO” value (LoVo) of the same compound?
**A.** 1.93E−07 Molar

**Q.** What about the CC50 (LoVo) of the same compound?
**A.** 390 nM

**Q.** What about the “TGI A-549” value (A-549) of the same compound?
**A.** 4.48E−07 Molar

**Q.** What about the GI50 (A-549) of the same compound?
**A.** 184 nM

**Q.** And the CC50 (A-549)?
**A.** 1.64 µM

**Q.** And the GI50 (PANC-1)?
**A.** 2.25 µM

**Q.** What about the “TGI PANC-1” value (PANC-1) of the same compound?
**A.** 5.27E−06 Molar

**Q.** What about the CC50 (PANC-1) of the same compound?
**A.** 6.47 µM

**Q.** And the GI50 (LoVo-Dox)?
**A.** 50.7 nM

**Q.** What about the “TGI LOVO-DOX” value (LoVo-Dox) of the same compound?
**A.** 1.30E−07 Molar

**Q.** What about the CC50 (LoVo-Dox) of the same compound?
**A.** 305 nM

**Q.** What about the “TGI HT-29” value (HT-29) of the same compound?
**A.** 1.92E−07 Molar

**Q.** And the GI50 (HT-29)?
**A.** 86 nM

**Q.** What about the CC50 (HT-29) of the same compound?
**A.** 429 nM

**Q.** And the GI50 (SK-MEL-28)?
**A.** 321 nM

**Q.** And the “TGI MEL-28” value (SK-MEL-28)?
**A.** 9.44E−07 Molar

**Q.** And the CC50 (SK-MEL-28)?
**A.** 2.62 µM

**Q.** And the GI50 (IGROV-1)?
**A.** 237 nM

**Q.** What about the LC50 (concentration causing 50% net cell killing) (IGROV-1) of the same compound?
**A.** 3.31 µM

**Q.** What about the “TGI IGROV” value (IGROV-1) of the same compound?
**A.** 7.76E−07 Molar

**Q.** What about the GI50 (SK-BR-3) of the same compound?
**A.** 149 nM

**Q.** And the LC50 (SK-BR-3)?
**A.** 1360 nM

**Q.** What about the “TGI SK-BR-3” value (SK-BR-3) of the same compound?
**A.** 3.66E−07 Molar

**Q.** What about the GI50 (HeLa-APL) of the same compound?
**A.** 391 nM

**Q.** What about the “TGI HELA-APL” value (HeLa-APL) of the same compound?
**A.** 1.20E−06 Molar

**Q.** What about the CC50 (HeLa-APL) of the same compound?
**A.** 2.75 µM
